Test results reported in ChEMBL document CHEMBL4665648, “Potent and selective inhibitors of receptor-interacting protein kinase 1 that lack an aromatic back pocket group” (Bioorg Med Chem Lett, 2019).

Columns and labels:
[1] = target: Mitogen-activated protein kinase 12 (Homo sapiens) (UniProt P53778); test: Inhibition of recombinant human His-tagged full length p38 gamma expressed in baculovirus expression system using Ser/Thr 03 as substrate at 10 uM incubated for 60 mins by Z'-Lyte assay relative to control
[2] = target: Vascular endothelial growth factor receptor 1 (Homo sapiens) (UniProt P17948); test: Inhibition of recombinant human GST-tagged FLT1 (781 to 1338 residues) expressed in baculovirus expression system using Tyr 04 as substrate at 10 uM incubated for 60 mins by Z'-Lyte assay relative to control
[3] = target: Eukaryotic elongation factor 2 kinase (Homo sapiens) (UniProt O00418); test: Inhibition of recombinant human GST-tagged full length EEF2K expressed in Escherichia coli expression system using Ser/Thr 24 as substrate at 10 uM incubated for 60 mins by Z'-Lyte assay relative to control
[4] = target: Focal adhesion kinase 1 (Homo sapiens) (UniProt Q05397); test: Inhibition of recombinant human GST-tagged full length FAK expressed in baculovirus expression system using Tyr 07 as substrate at 10 uM incubated for 60 mins by Z'-Lyte assay relative to control
[5] = target: Hepatocyte growth factor receptor (Homo sapiens) (UniProt P08581); test: Inhibition of recombinant human His-tagged MET (956 to 1390 residues) expressed in baculovirus expression system using Tyr 06 as substrate at 10 uM incubated for 60 mins by Z'-lyte assay relative to control
[6] = target: Ephrin type-A receptor 1 (Homo sapiens) (UniProt P21709); test: Inhibition of recombinant human GST-tagged EPHA1 (568 to 976 residues) expressed in baculovirus expression system using Tyr 02 as substrate at 10 uM incubated for 60 mins by Z'-Lyte assay relative to control
[7] = target: Mitogen-activated protein kinase kinase kinase kinase 4 (Homo sapiens) (UniProt O95819); test: Inhibition of recombinant human GST-tagged full length MAP4K4 expressed in baculovirus expression system using Ser/Thr 07 as substrate at 10 uM incubated for 60 mins by Z'-lyte assay relative to control
[8] = target: G protein-coupled receptor kinase 6 (Homo sapiens) (UniProt P43250); test: Inhibition of recombinant human GST-tagged full length GRK6 expressed in baculovirus expression system using Ser/Thr 16 as substrate at 10 uM incubated for 60 mins by Z'-Lyte assay relative to control
[9] = target: Receptor tyrosine-protein kinase erbB-2 (Homo sapiens) (UniProt P04626); test: Inhibition of recombinant human His-tagged ERBB2 (676 to 1255 residues) expressed in baculovirus expression system using Tyr 06 as substrate at 10 uM incubated for 60 mins by Z'-Lyte assay relative to control
[10] = target: Mitogen-activated protein kinase kinase kinase 8 (Homo sapiens) (UniProt P41279); test: Inhibition of recombinant human GST-tagged TPL2 (30 to 397 residues) expressed in baculovirus expression system using Ser/Thr 03 as substrate at 10 uM incubated for 60 mins by Z'-Lyte assay relative to control
Chain of Mitogen-activated protein kinase kinase kinase 8 (Homo sapiens) (P41279 whole entry, the tested form may be a part): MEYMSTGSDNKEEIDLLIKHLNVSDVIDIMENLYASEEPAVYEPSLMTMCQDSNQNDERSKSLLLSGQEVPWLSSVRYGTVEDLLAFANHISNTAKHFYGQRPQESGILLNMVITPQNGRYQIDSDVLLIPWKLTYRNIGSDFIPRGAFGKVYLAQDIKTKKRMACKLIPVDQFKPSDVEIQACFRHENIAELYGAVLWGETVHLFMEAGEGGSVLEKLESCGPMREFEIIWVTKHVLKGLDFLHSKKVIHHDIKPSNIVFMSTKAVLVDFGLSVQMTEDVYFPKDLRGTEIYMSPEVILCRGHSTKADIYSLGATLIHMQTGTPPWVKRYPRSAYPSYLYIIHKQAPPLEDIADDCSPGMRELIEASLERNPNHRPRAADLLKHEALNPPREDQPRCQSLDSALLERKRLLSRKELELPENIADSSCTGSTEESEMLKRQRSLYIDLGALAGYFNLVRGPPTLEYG

Chain of Ephrin type-A receptor 1 (Homo sapiens) (P21709 whole entry, the tested form may be a part): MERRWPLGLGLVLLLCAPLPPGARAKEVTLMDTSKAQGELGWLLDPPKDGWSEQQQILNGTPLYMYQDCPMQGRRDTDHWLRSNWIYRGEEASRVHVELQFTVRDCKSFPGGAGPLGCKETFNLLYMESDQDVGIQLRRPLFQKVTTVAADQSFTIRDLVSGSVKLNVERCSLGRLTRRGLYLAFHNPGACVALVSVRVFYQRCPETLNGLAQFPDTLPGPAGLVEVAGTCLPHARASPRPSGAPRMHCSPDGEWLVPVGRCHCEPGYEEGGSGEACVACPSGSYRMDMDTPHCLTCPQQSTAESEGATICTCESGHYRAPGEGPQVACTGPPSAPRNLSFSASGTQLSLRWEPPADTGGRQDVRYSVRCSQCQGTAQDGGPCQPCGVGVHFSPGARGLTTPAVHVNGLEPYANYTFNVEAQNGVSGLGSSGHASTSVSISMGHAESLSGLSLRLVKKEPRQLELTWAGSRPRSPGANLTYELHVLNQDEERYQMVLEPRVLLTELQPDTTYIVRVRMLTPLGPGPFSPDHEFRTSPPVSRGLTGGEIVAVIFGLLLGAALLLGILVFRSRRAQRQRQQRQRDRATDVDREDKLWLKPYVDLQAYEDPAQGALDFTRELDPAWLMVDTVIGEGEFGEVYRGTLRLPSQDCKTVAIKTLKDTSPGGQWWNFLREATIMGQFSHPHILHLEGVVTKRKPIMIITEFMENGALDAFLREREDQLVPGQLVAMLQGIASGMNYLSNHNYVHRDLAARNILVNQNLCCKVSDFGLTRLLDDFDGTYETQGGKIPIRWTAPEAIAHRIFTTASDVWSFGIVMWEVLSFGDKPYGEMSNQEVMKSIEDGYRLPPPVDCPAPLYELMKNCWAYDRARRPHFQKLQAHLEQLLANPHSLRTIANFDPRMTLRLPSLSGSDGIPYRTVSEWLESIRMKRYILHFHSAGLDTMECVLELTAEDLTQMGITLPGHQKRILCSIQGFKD
Chain of Receptor tyrosine-protein kinase erbB-2 (Homo sapiens) (P04626 whole entry, the tested form may be a part): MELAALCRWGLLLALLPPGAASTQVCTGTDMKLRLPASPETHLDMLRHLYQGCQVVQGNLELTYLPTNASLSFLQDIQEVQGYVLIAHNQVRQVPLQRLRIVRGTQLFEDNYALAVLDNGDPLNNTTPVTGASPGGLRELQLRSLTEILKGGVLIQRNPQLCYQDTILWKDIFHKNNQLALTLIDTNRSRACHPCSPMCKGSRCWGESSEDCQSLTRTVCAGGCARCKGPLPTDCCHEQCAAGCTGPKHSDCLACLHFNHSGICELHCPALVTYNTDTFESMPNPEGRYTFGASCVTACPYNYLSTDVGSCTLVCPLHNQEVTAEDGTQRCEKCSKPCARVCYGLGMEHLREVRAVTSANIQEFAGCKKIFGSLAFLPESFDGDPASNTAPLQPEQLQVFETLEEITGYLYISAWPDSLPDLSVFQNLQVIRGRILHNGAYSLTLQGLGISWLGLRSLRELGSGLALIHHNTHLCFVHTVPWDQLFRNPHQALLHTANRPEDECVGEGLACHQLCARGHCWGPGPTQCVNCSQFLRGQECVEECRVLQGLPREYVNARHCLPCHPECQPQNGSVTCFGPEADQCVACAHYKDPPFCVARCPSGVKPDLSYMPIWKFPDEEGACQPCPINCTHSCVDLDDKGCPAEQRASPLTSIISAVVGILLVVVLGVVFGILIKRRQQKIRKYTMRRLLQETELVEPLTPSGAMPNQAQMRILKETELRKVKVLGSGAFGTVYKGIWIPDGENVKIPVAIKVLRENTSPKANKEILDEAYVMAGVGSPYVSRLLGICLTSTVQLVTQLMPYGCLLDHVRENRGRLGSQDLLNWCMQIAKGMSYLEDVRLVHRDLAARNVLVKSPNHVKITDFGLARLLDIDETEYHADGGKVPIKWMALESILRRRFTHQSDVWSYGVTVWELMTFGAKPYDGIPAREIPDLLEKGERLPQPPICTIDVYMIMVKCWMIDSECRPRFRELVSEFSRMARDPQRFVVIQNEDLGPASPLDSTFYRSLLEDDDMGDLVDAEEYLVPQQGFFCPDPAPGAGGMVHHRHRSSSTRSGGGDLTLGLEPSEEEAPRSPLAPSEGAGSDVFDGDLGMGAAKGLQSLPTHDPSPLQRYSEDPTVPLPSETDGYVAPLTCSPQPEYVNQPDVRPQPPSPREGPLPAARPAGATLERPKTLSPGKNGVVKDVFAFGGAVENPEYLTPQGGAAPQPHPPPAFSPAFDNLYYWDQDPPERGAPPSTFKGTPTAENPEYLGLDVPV
Chain of Hepatocyte growth factor receptor (Homo sapiens) (P08581 whole entry, the tested form may be a part): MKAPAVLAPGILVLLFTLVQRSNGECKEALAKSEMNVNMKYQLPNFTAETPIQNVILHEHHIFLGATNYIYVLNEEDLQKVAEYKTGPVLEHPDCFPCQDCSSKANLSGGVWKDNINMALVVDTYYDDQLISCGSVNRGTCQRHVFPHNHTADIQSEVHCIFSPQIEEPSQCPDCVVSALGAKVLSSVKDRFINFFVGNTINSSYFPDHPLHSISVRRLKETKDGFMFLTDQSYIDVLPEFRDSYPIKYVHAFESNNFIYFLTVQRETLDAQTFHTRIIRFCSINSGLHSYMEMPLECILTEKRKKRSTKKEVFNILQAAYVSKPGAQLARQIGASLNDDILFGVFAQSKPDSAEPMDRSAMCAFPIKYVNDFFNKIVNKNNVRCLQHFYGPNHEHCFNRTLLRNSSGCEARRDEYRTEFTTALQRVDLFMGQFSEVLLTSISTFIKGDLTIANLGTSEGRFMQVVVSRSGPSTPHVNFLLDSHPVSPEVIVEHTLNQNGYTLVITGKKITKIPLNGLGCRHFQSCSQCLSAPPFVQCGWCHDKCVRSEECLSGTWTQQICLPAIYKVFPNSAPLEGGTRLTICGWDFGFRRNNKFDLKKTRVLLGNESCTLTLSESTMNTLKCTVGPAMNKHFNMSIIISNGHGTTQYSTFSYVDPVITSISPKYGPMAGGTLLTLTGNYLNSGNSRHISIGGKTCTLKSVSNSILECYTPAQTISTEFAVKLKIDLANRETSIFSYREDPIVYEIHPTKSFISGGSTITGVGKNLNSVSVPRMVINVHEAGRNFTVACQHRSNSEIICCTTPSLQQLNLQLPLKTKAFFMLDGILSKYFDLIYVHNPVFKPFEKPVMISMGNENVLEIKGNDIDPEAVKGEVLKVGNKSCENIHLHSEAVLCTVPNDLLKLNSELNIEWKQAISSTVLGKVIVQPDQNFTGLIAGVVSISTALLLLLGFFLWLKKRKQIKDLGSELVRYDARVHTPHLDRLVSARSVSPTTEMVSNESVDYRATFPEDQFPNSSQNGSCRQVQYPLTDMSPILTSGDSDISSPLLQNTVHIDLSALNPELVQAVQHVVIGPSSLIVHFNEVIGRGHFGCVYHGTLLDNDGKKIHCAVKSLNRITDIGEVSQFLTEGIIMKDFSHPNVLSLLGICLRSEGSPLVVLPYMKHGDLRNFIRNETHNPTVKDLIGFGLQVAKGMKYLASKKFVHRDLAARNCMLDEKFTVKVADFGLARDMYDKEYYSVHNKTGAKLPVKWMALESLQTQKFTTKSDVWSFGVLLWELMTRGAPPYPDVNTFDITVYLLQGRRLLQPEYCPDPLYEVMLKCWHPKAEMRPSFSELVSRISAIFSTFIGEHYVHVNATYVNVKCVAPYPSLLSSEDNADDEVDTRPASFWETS
Chain of Mitogen-activated protein kinase 12 (Homo sapiens) (P53778 whole entry, the tested form may be a part): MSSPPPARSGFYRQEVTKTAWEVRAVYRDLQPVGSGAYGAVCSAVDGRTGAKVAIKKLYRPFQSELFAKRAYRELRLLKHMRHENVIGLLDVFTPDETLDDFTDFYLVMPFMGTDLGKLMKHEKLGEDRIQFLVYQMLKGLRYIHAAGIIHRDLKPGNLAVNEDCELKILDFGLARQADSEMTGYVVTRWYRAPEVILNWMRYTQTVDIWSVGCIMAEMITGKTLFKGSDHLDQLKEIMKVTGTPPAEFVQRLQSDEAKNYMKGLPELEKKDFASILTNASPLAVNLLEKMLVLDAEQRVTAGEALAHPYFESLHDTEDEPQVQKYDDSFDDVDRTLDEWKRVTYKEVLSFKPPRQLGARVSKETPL
Chain of G protein-coupled receptor kinase 6 (Homo sapiens) (P43250 whole entry, looked up, the tested form may be a part): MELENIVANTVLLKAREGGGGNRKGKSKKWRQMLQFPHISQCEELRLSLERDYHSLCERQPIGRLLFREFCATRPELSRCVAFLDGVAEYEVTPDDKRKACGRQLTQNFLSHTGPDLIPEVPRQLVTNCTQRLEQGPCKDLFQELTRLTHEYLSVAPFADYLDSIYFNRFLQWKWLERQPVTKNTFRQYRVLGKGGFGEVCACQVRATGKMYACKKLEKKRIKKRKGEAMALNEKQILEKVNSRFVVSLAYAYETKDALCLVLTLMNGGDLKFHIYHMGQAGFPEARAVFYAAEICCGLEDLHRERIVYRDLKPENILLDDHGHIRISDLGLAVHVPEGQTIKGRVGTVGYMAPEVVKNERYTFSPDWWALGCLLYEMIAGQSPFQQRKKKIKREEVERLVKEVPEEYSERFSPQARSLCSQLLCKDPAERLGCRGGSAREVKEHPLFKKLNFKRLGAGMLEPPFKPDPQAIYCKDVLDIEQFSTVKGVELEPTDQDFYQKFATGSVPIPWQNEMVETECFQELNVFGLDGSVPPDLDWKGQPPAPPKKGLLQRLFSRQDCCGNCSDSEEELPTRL

Work on `CN1C(=O)[C@@H](NC(=O)c2n[nH]c3ncc(C(F)(F)C(F)(F)F)cc23)COc2ccccc21` yielded an inhibition [1] of -1%, an inhibition [2] of 3.5% and an inhibition [3] of 6%. For the same molecule, the inhibition [4] was 0.5%, the inhibition [5] was 4.5% and the inhibition [6] was 6.5%. It also gave an inhibition [7] of 15.5%, an inhibition [8] of -0.5% and an inhibition [9] of 2%. For the same molecule, the inhibition [10] was 6.5%.
